From patent US20020198254A1, “Polyamide analogs” (priority 2000, published 2002)
Converted amounts (≈) assume the structure as drawn. Read-outs that look alike come from different tables or passages of the source.

Legend:
Format in all cases: cell-based
Streptococcus pneumoniae = experiment: MIC assay, S. pneumoniae; details: CAMHB + 5% LHB, 24 h
Protocol: (§1) These assays are adapted from NCCLS protocols M7-A4 and M27-A (NCCLS vol 17:9 and vol 17:2) as modified by Sandven, S. Clin. Micro. (1999) 37:12, p.3856-3859. MIC values for Aspergillus fumigatus were determined using NCCLS protocol M38-P.
(§2) All compounds were dissolved in 100% DMSO to a stock concentration of 10 mM and use fresh or stored at −80° C. Stock compounds were kept frozen until needed and used freshly with no more then one freeze-thaw cycle. When used for test purposes, compounds were diluted in the appropriate media depending on the organism being tested.
(§3) For yeast and aspergillus species, seven 1:2 serial dilutions of compound in appropriate media buffered with MOPS at pH 7.0 were prepared such that the final starting test compound concentrations were 50.0 uM for yeast and 50 uM aspergillus species. For bacteria, dilutions were made in growth media used for the particular bacteria being tested.
(§4) Inoculums are made in the same manner as yeast except all dilutions are made in normal saline, with a final dilution of 1:200 and an inoculum of 10 μL. VRE are vancomycin resistant enterococci, BM4147 and UCD-3 represent two different sources of VRE. MRSA are […] resistant Staphylococcus Aureus.

Bacillus cereus = experiment: MIC assay, B. cereus; details: CAMHB, 16 h
Protocol: as §1, §2, §3, §4

Haemophilus influenzae = experiment: MIC assay, H. influenzae; details: HTM, 24 h
Protocol: as §1, §2, §3, §4

Candida albicans = experiment: MIC assay, yeast C. albicans; details: RPMI, 48 h, Alamar Blue
[1] = system: VRE-UL17 (vancomycin resistant enterococci); experiment: MIC assay, VRE strain UL-17; details: for MIC: Enterococcus, VRE
Protocol: as §1, §2, §3, §4

Staphylococcus aureus = experiment: MIC assay, S. aureus; details: CAMHB, 16 h
Protocol: as §1, §2, §3, §4

[2] = system: VRE-UCD3 (vancomycin resistant enterococci); experiment: MIC assay, VRE strain UCD-3; details: for MIC: Enterococcus, VRE
Protocol: as §1, §2, §3, §4

[3] = system: VRE-CSUC4 (vancomycin resistant enterococci); experiment: MIC assay, VRE strain CSUC-4; details: for MIC: Enterococcus, VRE
Protocol: as §1, §2, §3, §4

Moraxella catarrhalis = experiment: MIC assay, M. catarrhalis; details: BHI, 16 h
Protocol: as §1, §2, §3, §4

[4] = system: VRE-BM4147 (vancomycin resistant enterococci); experiment: MIC assay, VRE strain BM4147; details: for MIC: Enterococcus, VRE
Protocol: as §1, §2, §3, §4

Pseudomonas aeruginosa = experiment: MIC assay, P. aeruginosa; details: CAMHB, 16 h
Protocol: as §1, §2, §3, §4

Cn1cc(NC(=O)c2cc(NC(=O)c3cc(NC(=O)CN)cn3C)cn2C)cc1C(=O)NCCCN(CCCN)CCCNC(=O)c1cc(NC(=O)c2cc(NC(=O)c3cc(NC(=O)CN)cn3C)cn2C)cn1C [Compound 66, N,N-bis-{4-{4-[(NH2CH2CONH)-1-methyl-1H-pyrrol-2-yl-carbonylamino]-1-methyl-1H-pyrrol-2-ylcarbonylamino}-1-methyl-1H-pyrrol-2-yl-carbonylaminopropyl}-N-(3-aminoethylpropyl)amine]
MIC Assay Other Strains: S. pneumoniae (Streptococcus pneumoniae): >45.5 µM
MIC Assay Other Strains: B. cereus (Bacillus cereus): >45.5 µM
MIC Assay Other Strains: H influenzae (Haemophilus influenzae): >45.5 µM
MIC Assay C. Albicans (Candida albicans): >44.4 µM
MIC Assay VRE Strains: UL-17 van25 ([1]; 25 μg/mL Vancomycin - 24 h): >45.5 µM
MIC Assay Other Strains: S. aureus (Staphylococcus aureus): >45.5 µM
MIC Assay VRE Strains: UCD-3 van25 ([2]; 25 μg/mL Vancomycin - 24 h): >45.5 µM
MIC Assay VRE Strains: CSUC-4 van25 ([3]; 25 μg/mL Vancomycin - 24 h): >45.5 µM
MIC Assay Other Strains: M. catarrhalis (Moraxella catarrhalis): >45.5 µM
MIC Assay VRE Strains: BM4147 van25 ([4]; 25 μg/mL Vancomycin - 24 h): >45.5 µM
MIC Assay Other Strains: P. aeruginosa (Pseudomonas aeruginosa): >45.5 µM

Cn1cc(NC(=O)c2cc(NC(=O)CN)cn2C)cc1C(=O)NCCCN(CCCNC(=O)c1cc(NC(=O)c2cc(NC(=O)CN)cn2C)cn1C)CCCNC(=O)c1cc(NC(=O)c2cc(NC(=O)CN)cn2C)cn1C [Compound 74, tris-{4-[(NH2CH2CONH)-1-methyl-1H-pyrrol-2-yl-carbonylamino]-1-methyl-1H-pyrrol-2-yl-carbonylaminopropyl}amine]
MIC Assay Other Strains: S. pneumoniae (Streptococcus pneumoniae): 2.8 µM
MIC Assay Other Strains: B. cereus (Bacillus cereus): 11.4 µM (≈ 12.5 µg/mL)
MIC Assay Other Strains: H influenzae (Haemophilus influenzae): >45.5 µM
MIC Assay C. Albicans (Candida albicans): >44.4 µM
MIC Assay VRE Strains: UL-17 van25 ([1]; 25 μg/mL Vancomycin - 24 h): 22.7 µM
MIC Assay VRE Strains: UL-17 van0 ([1]; No vancomycin - 16 h): 11.4 µM (≈ 12.5 µg/mL)
MIC Assay Other Strains: S. aureus (Staphylococcus aureus): 22.7 µM (≈ 24.8 µg/mL)
MIC Assay VRE Strains: UCD-3 van25 ([2]; 25 μg/mL Vancomycin - 24 h): 11.4 µM
MIC Assay VRE Strains: UCD-3 van0 ([2]; No vancomycin - 16 h): 5.7 µM (≈ 6.23 µg/mL)
MIC Assay VRE Strains: CSUC-4 van25 ([3]; 25 μg/mL Vancomycin - 24 h): 22.7 µM
MIC Assay VRE Strains: CSUC-4 van0 ([3]; No vancomycin - 16 h): 22.7 µM (≈ 24.8 µg/mL)
MIC Assay Other Strains: M. catarrhalis (Moraxella catarrhalis): 1.4 µM (≈ 1.53 µg/mL)
MIC Assay VRE Strains: BM4147 van25 ([4]; 25 μg/mL Vancomycin - 24 h): 22.7 µM
MIC Assay VRE Strains: BM4147 van0 ([4]; No vancomycin - 16 h): 22.7 µM (≈ 24.8 µg/mL)
MIC Assay Other Strains: P. aeruginosa (Pseudomonas aeruginosa): >45.5 µM

Cn1cc(NC(=O)c2cc(NC(=O)CN)cn2C)cc1C(=O)NCCCNCCCNC(=O)c1cc(NC(=O)c2cc(NC(=O)CN)cn2C)cn1C [Compound 113]
MIC (Streptococcus pneumoniae; Streptococcus pneumoniae, read-out: MIC Assay Other Strains: S. pneumoniae): 11.4 µM
MIC (Bacillus cereus; Bacillus cereus, read-out: MIC Assay Other Strains: B. cereus): 11.4 µM (≈ 8.37 µg/mL)
MIC (Haemophilus influenzae; Haemophilus influenzae, read-out: MIC Assay Other Strains: H influenzae): > 45.5 µM
MIC (Candida albicans; Candida albicans): > 44.4 µM
MIC ([1]; 25 μg/mL Vancomycin - 24 h, read-out: MIC Assay VRE Strains: UL-17 van25): 22.7 µM
MIC ([1]; No vancomycin - 16 h, read-out: MIC Assay VRE Strains: UL-17 van0): > 45.5 µM
MIC (Staphylococcus aureus; Staphylococcus aureus, read-out: MIC Assay Other Strains: S. aureus): > 45.5 µM
MIC ([2]; 25 μg/mL Vancomycin - 24 h, read-out: MIC Assay VRE Strains: UCD-3 van25): 11.4 µM
MIC ([2]; No vancomycin - 16 h, read-out: MIC Assay VRE Strains: UCD-3 van0): 22.7 µM (≈ 16.7 µg/mL)
MIC ([3]; 25 μg/mL Vancomycin - 24 h, read-out: MIC Assay VRE Strains: CSUC-4 van25): 45.5 µM
MIC ([3]; No vancomycin - 16 h, read-out: MIC Assay VRE Strains: CSUC-4 van0): 22.7 µM (≈ 16.7 µg/mL)
MIC (Moraxella catarrhalis; Moraxella catarrhalis, read-out: MIC Assay Other Strains: M. catarrhalis): 5.7 µM (≈ 4.18 µg/mL)
MIC ([4]; 25 μg/mL Vancomycin - 24 h, read-out: MIC Assay VRE Strains: BM4147 van25): 22.7 µM
MIC ([4]; No vancomycin - 16 h, read-out: MIC Assay VRE Strains: BM4147 van0): 22.7 µM (≈ 16.7 µg/mL)
MIC (Pseudomonas aeruginosa; Pseudomonas aeruginosa, read-out: MIC Assay Other Strains: P. aeruginosa): > 45.5 µM
